Assay results as given in paper PMC4980083 (JCI insight, 2016).

How the values were obtained:
LNCaP95 cells = assay: Cell cycle analysis of LNCaP95 cells; type: cell-based, human; settings: I-EPI-002 5 μM, EPI-002 25 μM, 48 hours
GR LBD = biological target: T1, GR LBD (Homo sapiens, UniProt P04150); assay: Fluorescence polarization competition binding, GR LBD
T1 sequence (P04150 524-758 limits assumed): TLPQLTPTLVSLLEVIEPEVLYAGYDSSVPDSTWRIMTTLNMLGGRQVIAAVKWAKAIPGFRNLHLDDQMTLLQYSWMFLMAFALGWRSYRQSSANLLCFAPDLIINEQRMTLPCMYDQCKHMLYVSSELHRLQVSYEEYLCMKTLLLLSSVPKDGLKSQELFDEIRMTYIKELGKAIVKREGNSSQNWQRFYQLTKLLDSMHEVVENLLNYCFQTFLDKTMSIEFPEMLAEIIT

recombinant AR LBD = biological target: T2, recombinant AR LBD (Homo sapiens, UniProt P10275); assay: Fluorescence polarization competition binding, AR LBD; settings: 1 nM fluorescently labeled ligand, AR LBD 25 nM
T2 sequence (P10275 669-900 limits assumed): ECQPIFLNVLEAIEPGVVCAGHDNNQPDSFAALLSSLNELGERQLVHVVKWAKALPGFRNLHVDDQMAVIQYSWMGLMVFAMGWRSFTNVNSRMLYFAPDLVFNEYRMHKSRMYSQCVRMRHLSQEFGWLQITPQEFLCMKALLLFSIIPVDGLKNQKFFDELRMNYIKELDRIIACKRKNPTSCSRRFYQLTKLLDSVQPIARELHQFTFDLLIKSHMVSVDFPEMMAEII

[1] = biological target: T3, endogenous full-length AR (Homo sapiens, UniProt P10275, T878A); assay: AR transcriptional activity, PSA
T3 sequence (P10275 1-920 T878A): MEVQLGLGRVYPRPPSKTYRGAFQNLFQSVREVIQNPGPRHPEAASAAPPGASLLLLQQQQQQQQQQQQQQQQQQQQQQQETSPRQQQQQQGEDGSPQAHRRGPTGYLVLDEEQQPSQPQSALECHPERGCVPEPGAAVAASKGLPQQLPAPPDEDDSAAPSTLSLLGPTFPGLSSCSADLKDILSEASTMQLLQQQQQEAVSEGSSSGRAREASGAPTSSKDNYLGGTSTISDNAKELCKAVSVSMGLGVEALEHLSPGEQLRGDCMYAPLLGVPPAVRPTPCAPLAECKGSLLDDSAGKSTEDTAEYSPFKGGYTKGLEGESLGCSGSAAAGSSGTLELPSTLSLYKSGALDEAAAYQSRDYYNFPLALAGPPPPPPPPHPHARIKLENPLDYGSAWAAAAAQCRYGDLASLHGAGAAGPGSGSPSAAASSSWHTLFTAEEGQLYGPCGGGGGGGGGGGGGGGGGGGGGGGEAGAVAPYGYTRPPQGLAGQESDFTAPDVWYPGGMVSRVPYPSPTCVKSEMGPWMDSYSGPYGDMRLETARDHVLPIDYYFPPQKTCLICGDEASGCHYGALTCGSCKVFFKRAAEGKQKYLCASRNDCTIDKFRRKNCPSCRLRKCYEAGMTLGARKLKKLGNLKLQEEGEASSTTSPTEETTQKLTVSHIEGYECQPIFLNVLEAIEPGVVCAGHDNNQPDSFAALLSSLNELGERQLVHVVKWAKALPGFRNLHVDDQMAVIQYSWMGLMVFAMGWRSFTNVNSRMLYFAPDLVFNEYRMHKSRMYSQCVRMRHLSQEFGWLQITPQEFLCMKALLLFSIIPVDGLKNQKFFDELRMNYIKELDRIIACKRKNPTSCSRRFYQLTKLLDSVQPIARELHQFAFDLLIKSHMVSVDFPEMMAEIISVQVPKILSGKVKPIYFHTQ

15-IodoEPI002 [I-EPI-002]
decrease of S phase cells (LNCaP95 cells): ≥ 2 fold
competition for ligand binding to GR LBD (GR LBD): did not prevent ligand-binding
competition with fluoromone for binding to AR LBD (recombinant AR LBD): did not prevent ligand-binding
potency relative to EPI-002 ([1]; cell-based functional assays): 10 times
inhibition of AR transcriptional activity with increasing concentrations of androgen ([1]; increasing R1881, enzalutamide 5 μM, I-EPI-002 5 μM, EPI-002 25 μM): maintained effective inhibition
inhibition of AR transcriptional activity ([1]; ~2 μM, R1881 1 nM): 75%
